Numbered stars: 1 amine (or outer) side, 2 acyl side, 3 side chain; on linkers, the order of the positions; unused ones are H or OH. Bridge positions count the residues as written; N and C are the ends. Square brackets hold non-standard residues; d marks the D form. Peptide text beside a SMILES is read from it. * marks the point of attachment. hPhe(3-Cl-4-CF3) = N[C@@H](CCc1ccc(C(F)(F)F)c(Cl)c1)C(=O)O; NMePhe(3-CF3) = CN[C@@H](Cc1cccc(C(F)(F)F)c1)C(=O)O; NMePhe(4-CF3) = CN[C@@H](Cc1ccc(C(F)(F)F)cc1)C(=O)O; X120 = O=C([C@H](Cc1cc(F)cc(Br)c1)N[*:1])[*:2]; X105 = C[C@@](Cc1cccc(I)c1)(N[*:1])C(=O)[*:2]; NMeAbu(4,4,4-F3) = CN[C@@H](CC(F)(F)F)C(=O)O; NMePhe(4-Cl) = CN[C@@H](Cc1ccc(Cl)cc1)C(=O)O; X51 = CN([C@@](C)(Cc1ccccc1)C(=O)[*:2])[*:1]; NMePhe(2-Me) = CN[C@@H](Cc1ccccc1C)C(=O)O; NMedβ3hAla = C[C@H](CC(=O)[*:2])N(C)[*:1]; NMeGly(cPent) = CN[C@H](C(=O)O)C1CCCC1; Phe(3-I) = N[C@@H](Cc1cccc(I)c1)C(=O)O; NMe3Pal = CN[C@@H](Cc1cccnc1)C(=O)O; NMeY = CN[C@@H](Cc1ccc(O)cc1)C(=O)O; NMeCha = CN[C@@H](CC1CCCCC1)C(=O)O; NMeChg = CN[C@H](C(=O)O)C1CCCCC1; NMeD = CN[C@@H](CC(=O)O)C(=O)O; NMeL = CN[C@@H](CC(C)C)C(=O)O; NMeV = CN[C@H](C(=O)O)C(C)C; d(β3hA) = C[C@@H](N)CC(=O)O; NMeAbu = CC[C@H](NC)C(=O)O; NMeA = CN[C@@H](C)C(=O)O; NMeAib = CNC(C)(C)C(=O)O; Nle = CCCC[C@H](N)C(=O)O; Piperidide = C1CCN(*)CC1; Pyrrolidide = C1CCN(*)C1; Ac5c = NC1(C(=O)O)CCCC1; Aze = O=C(O)[C@@H]1CCN1; Sar = CNCC(=O)O
These compounds were tested on Human pancreatic cancer cell line AsPC-1 (G12D mutation Kras) (assay: AsPC-1 cell growth inhibition (AsPC-1 CGI)). Details: read-out: AsPC-1 cell growth inhibition, 50% growth inhibitory concentration (IC50 value); 96 hours, CellTiter-Glo, values classified in ranges.
Assay type: cell-based
Method: Test compounds were serially dilated with dimethyl sulfoxide, and 200 nL was then dispensed to a U-bottom 96-well plate using Labcyte Echo. […] The cell suspension was dispensed to a. plate containing a test compound at 100 μL per well and incubated at 37° C. in a 5% carbon dioxide gas incubator. 96 hours later, 80 μL of CellTiter-Glo (Promega) was added to each well and fluorescence was measured.

Row | Compound | IC50 [nM]
1 | CC[C@H](C)[C@@H]1NC(=O)[C@H](CC(C)C)N(C)C(=O)C[C@@H](C(=O)N2CCCCC2)N(C)C(=O)[C@H](C2CCCCC2)N(C)C(=O)C2(CCCC2)NC(=O)[C@H](Cc2cccnc2)N(C)C(=O)[C@H](CCc2ccc(C(F)(F)F)c(Cl)c2)NC(=O)CN(C)C(=O)[C@H](CC2CCCCC2)N(C)C(=O)CN(C)C(=O)CN(C)C1=O [Compound 63] ([NMeL]I[Sar][Sar][NMeCha][Sar][hPhe(3-Cl-4-CF3)][NMe3Pal][Ac5c][NMeChg][NMeD]-Piperidide; lactam N-11) | > 500
2 | CCCC[C@@H]1NC(=O)[C@](C)(Cc2cccc(I)c2)NC(=O)CN(C)C(=O)[C@H](Cc2ccc(Cl)cc2)N(C)C(=O)CN(C)C(=O)CN(C)C(=O)[C@H]([C@@H](C)CC)NC(=O)[C@H](CC(C)C)N(C)C(=O)C[C@@H](C(=O)N2CCCCC2)N(C)C(=O)[C@H](CC(C)C)NC(=O)C(C)(C)N(C)C1=O [Compound 1202] ([NMeL]I[Sar][Sar][NMePhe(4-Cl)][Sar][X105][Nle][NMeAib]L[NMeD]-Piperidide; lactam N-11) | > 500
3 | CC[C@H](C)[C@@H]1NC(=O)[C@H](CC(C)C)N(C)C(=O)C[C@@H](C)NC(=O)[C@H](C(C)C)N(C)C(=O)C2(CCCC2)NC(=O)[C@@H]2CCCN2C(=O)[C@H](CCc2ccc(C(F)(F)F)c(Cl)c2)NC(=O)CN(C)C(=O)[C@H](Cc2cccc(C(F)(F)F)c2)N(C)C(=O)CN(C)C(=O)CN(C)C1=O [Compound 1575] (cyclo([Ac5c][NMeV][d(β3hA)][NMeL]I[Sar][Sar][NMePhe(3-CF3)][Sar][hPhe(3-Cl-4-CF3)]P)) | > 500
4 | CCCC[C@@H]1NC(=O)[C@H](Cc2cccc(I)c2)NC(=O)CN(C)C(=O)[C@H](Cc2ccc(OC)cc2)N(C)C(=O)[C@@H]2CCN2C(=O)CN(C)C(=O)[C@H]([C@@H](C)CC)NC(=O)[C@H](CC(C)C)N(C)C(=O)C[C@@H](C(=O)N2CCCCC2)N(C)C(=O)[C@H](CC(C)C)NC(=O)[C@](C)(Cc2ccccc2)N(C)C1=O [Compound 1058] ([NMeL]I[Sar][Aze][NMeY](Me)[Sar][Phe(3-I)][Nle][X51]L[NMeD]-Piperidide; lactam N-11) | > 500
5 | CC[C@H](C)[C@@H]1NC(=O)[C@H](CC(C)C)N(C)C(=O)C[C@@H](C(=O)N(C)C)N(C)C(=O)[C@H](C2CCCC2)N(C)C(=O)C2(CCCC2)NC(=O)[C@H](Cc2ccccc2C)N(C)C(=O)[C@H](CCc2ccc(C(F)(F)F)c(Cl)c2)NC(=O)CN(C)C(=O)[C@H](CC2CCCCC2)N(C)C(=O)[C@@H]2CCN2C(=O)[C@H](C)N(C)C1=O [Compound 1880] ([NMeL]I[NMeA][Aze][NMeCha][Sar][hPhe(3-Cl-4-CF3)][NMePhe(2-Me)][Ac5c][NMeGly(cPent)][NMeD]-NMe2; lactam N-11) | > 500
6 | CC[C@H](C)[C@@H]1NC(=O)[C@H](CC(F)(F)F)N(C)C(=O)C[C@@H](C(=O)N2CCCC2)N(C)C(=O)[C@H](C2CCCCC2)N(C)C(=O)C2(CCCC2)NC(=O)[C@@H]2CCCN2C(=O)[C@H](CCc2ccc(C(F)(F)F)c(Cl)c2)NC(=O)CN(C)C(=O)[C@H](Cc2ccc(C(F)(F)F)cc2)N(C)C(=O)CN(C)C(=O)CN(C)C1=O [Compound 245] ([NMeAbu(4,4,4-F3)]I[Sar][Sar][NMePhe(4-CF3)][Sar][hPhe(3-Cl-4-CF3)]P[Ac5c][NMeChg][NMeD]-Pyrrolidide; lactam N-11) | ≤ 20
7 | CC[C@H](C)[C@@H]1NC(=O)[C@H](C)N(C)C(=O)C[C@@H](C)N(C)C(=O)[C@H](CC(C)C)NC(=O)C(C)(C)N(C)C(=O)[C@H](CC(C)C)NC(=O)[C@H](CCc2ccc(C(F)(F)F)c(Cl)c2)NC(=O)CN(C)C(=O)[C@H](CC2CCCCC2)N(C)C(=O)[C@@H]2CCN2C(=O)CN(C)C1=O [Compound 1387] (cyclo([Aze][NMeCha][Sar][hPhe(3-Cl-4-CF3)]L[NMeAib]L[NMedβ3hAla][NMeA]I[Sar])) | > 500
8 | CCCC[C@@H]1NC(=O)[C@H](Cc2cc(F)cc(Br)c2)NC(=O)CN(C)C(=O)[C@H](Cc2ccc(OC)cc2)N(C)C(=O)[C@@H]2CCN2C(=O)[C@H](C)N(C)C(=O)[C@H]([C@@H](C)CC)NC(=O)[C@H](CC)N(C)C(=O)C[C@@H](C(=O)N2CCCCC2)N(C)C(=O)[C@H](CC(C)C)NC(=O)C(C)(C)N(C)C1=O [Compound 1372] ([NMeAbu]I[NMeA][Aze][NMeY](Me)[Sar][X120][Nle][NMeAib]L[NMeD]-Piperidide; lactam N-11) | > 500
9 | CC[C@H](C)[C@@H]1NC(=O)[C@H](C)N(C)C(=O)C[C@@H](C)N(C)C(=O)[C@H](C2CCCCC2)N(C)C(=O)C2(CCCC2)NC(=O)[C@@H]2CCCN2C(=O)[C@H](CCc2ccc(C(F)(F)F)c(Cl)c2)NC(=O)CN(C)C(=O)[C@H](CC2CCCCC2)N(C)C(=O)CN(C)C(=O)CN(C)C1=O [Compound 1808] (cyclo([Ac5c][NMeChg][NMedβ3hAla][NMeA]I[Sar][Sar][NMeCha][Sar][hPhe(3-Cl-4-CF3)]P)) | > 500
